Laboratory results published in paper PMC10620186, “Recognition and reprogramming of E3 ubiquitin ligase surfaces by α-helical peptides” (Nature Communications, 2023).

Key:
[1] = biological target: CHIP-TEAD4 ternary complex (Homo sapiens, UniProt Q15561+Q9UNE7); settings: SPR ABA, Rmax compared with expected response
[2] = biological target: CHIP-PPIA ternary complex (Homo sapiens, UniProt P62937+Q9UNE7); settings: SPR ABA, immobilized PPIA, 10 μM Helicon
[3] = biological target: VHL-ELOBC (Homo sapiens, UniProt P40337+Q15369+Q15370); settings: competition FP, 15 nM VHL-ELOBC, 5 nM HXC78, 1 h room temperature, n = 2

Row | Structure (SMILES) | ternary complex formation with CHIP and PPIA, of the expected response [2] | also measured
1 | CC(=O)N1CCC[C@H]1C(=O)N[C@H](C(=O)N1CCC[C@H]1C(=O)N[C@@H](Cc1ccccc1)C(=O)N[C@@H](Cc1ccccc1)C(=O)N[C@@H](Cc1c[nH]c2ccccc12)C(=O)N[C@@H](CCC(=O)O)C(=O)N[C@H]1CSCC(=O)Nc2ccc(cc2)NC(=O)CSC[C@@H](C(=O)N[C@H](C(=O)N[C@@H](C)C(=O)N2CCC[C@H]2C(=O)N[C@@H](CCCNC(=N)N)C(=O)N[C@H](C(=O)N[C@@H](CCC(N)=O)C(N)=O)C(C)C)[C@@H](C)O)NC(=O)[C@H]([C@@H](C)O)NC(=O)[C@H](C)NC(=O)[C@H](C)NC(=O)[C@H](C)NC(=O)[C@H](Cc2ccccc2)NC(=O)[C@H](CCC(N)=O)NC1=O)[C@@H](C)O [Helicon H323] |  | amount of ternary complex formed, CHIP and TEAD4 [1]: 65%
2 | CC(=O)N1CCC[C@H]1C(=O)N[C@@H](C)C(=O)N[C@@H](CCC(N)=O)C(=O)N[C@@H](CC(=O)O)C(=O)N[C@@H](CC(=O)O)C(=O)N[C@@H](Cc1c[nH]c2ccccc12)C(=O)N[C@@H](CO)C(=O)N[C@H]1CSCC(=O)Nc2ccc(cc2)NC(=O)CSC[C@@H](C(=O)N[C@@H](CCC(=O)O)C(=O)N[C@@H](CC(N)=O)C(=O)N[C@@H](Cc2ccc(O)cc2)C(=O)N[C@H](C(=O)N[C@@H](CCCNC(=N)N)C(=O)N[C@H](C(N)=O)C(C)C)C(C)C)NC(=O)[C@H](CC(C)C)NC(=O)[C@H](Cc2ccc(O)cc2)NC(=O)[C@H](C)NC(=O)[C@H](C)NC(=O)[C@H](CCC(=O)O)NC(=O)[C@H](C(C)C)NC1=O [Helicon H326] | 3% | 
3 | CC[C@H](C)[C@H](NC(=O)[C@@H](NC(=O)CNC(=O)[C@H](CC(=O)O)NC(=O)[C@@H](NC(=O)[C@H](Cc1c[nH]c2ccccc12)NC(=O)[C@@H]1CSCC(=O)Nc2ccc(cc2)NC(=O)CSC[C@H](NC(=O)[C@H](CCSC)NC(=O)[C@@H]2CCCN2C(=O)[C@H](C)NC(=O)[C@H](CC(C)C)NC(=O)[C@H](CCSC)NC(=O)[C@H](CC(=O)O)NC(=O)[C@@H]2CCCN2C(C)=O)C(=O)NCC(=O)N2CCC[C@H]2C(=O)N[C@@H](C)C(=O)N[C@@H](C)C(=O)N[C@@H](CO)C(=O)N[C@@H]([C@@H](C)CC)C(=O)N1)[C@@H](C)CC)C(C)C)C(N)=O [Helicon H328] | 11% | 
4 | Cc1ncsc1-c1ccc(CNC(=O)[C@@H]2C[C@@H](O)CN2C(=O)[C@@H](NC(=O)C2(C#N)CC2)C(C)(C)C)cc1 [VH298, (2S,4R)−1-((S)−2-(1-Cyanocyclopropanecarboxamido)−3,3-dimethylbutanoyl)−4-hydroxy-N-(4-(4-methylthiazol-5-yl)benzyl)pyrrolidine-2-carboxamide] |  | competition with HXC78 for binding VHL-ELOBC [3]: potently competes
